Measurements reported in US11795195B2, “Antibody-drug conjugates including hemiasterlin derivative” (Sumitomo Pharma Co., Ltd., priority 2017, dated 2023).

What was measured:
[1] = tested on: Karpas-299 cells; test: Cellular Toxicity Test (1), CellTiter-Glo cell viability; assay type: cell-based, human; conditions: Homo sapiens, 96 h, cultured 4 days, cell viability
Description: Karpas-299 cells (European Collection of Authenticated Cell Cultures, hereinafter, ECACC), which are human lymphoma cell lines, were cultured in RPMI 1640 (GIBCO) containing 10% fetal bovine serum (MP Biomedicals) (hereinafter, referred to as the “culture medium”). Cells were prepared to be 2×10^6 cells/mL in the culture medium, and were added to a 96 well microplate for cell culturing in an amount of 50 μL for each well. Compounds of Examples or Comparative Example compound 4 times diluted with the culture medium in 8 stages were added to the microplate in an amount of 50 μL for each well. These were cultured at 37 degree under 5% CO2 for 4 days. After culturing, the microplate was taken out from the incubator, and was left at rest at room temperature for 10 minutes. To each well, 50 μL of CellTiter-Glo Luminescent Cell Viability Assay (Promega) was added, and the resultant mixture was stirred. This mixture was incubated at a dark place for 20 minutes. Using a microplate luminometer, luminescence at each well was measured, thereby calculating the cell viability. In addition, from the value of cell viability, the IC50 value was calculated.
The IC50 value was calculated by the following formula: IC50 (nM)=antilog(LOG10(a/b)×(e−d)/(c−d)+LOG10b) a: concentration a of test substance b: concentration b of test substance c: cell viability upon adding test substance with concentration a d: cell viability upon adding test substance with concentration b e: intermediate value between maximum and minimum among cell viabilities upon adding test substances with different concentrations (a and b are concentrations crossing the cell viability e, and a>b is indicated).
The cell viability at each concentration was calculated by the following formula: Cell Viability (%)=a′/b′×100 a′: mean value of luminescence amount of wells to which test substance was added (n=6) b′: mean value of luminescence amount of wells to which test substance was not added (n=6) (n represents the number of evaluations performed per test substance concentration).

[2] = Membrane Permeability Test, parallel artificial membrane permeability assay (PAMPA); assay type: in vitro ADME; conditions: pH 7.4, pH7.4, 37° C., read-out: Pe (pH7.4)
Description: By the parallel artificial membrane permeability assay (PAMPA), the membrane permeability of compounds of Examples was examined as follows: To the donor plate, System solution (pION inc.) and GIT Lipid-0 (pION inc.) were added in an amount of 200 μL and 4 μL for each well, respectively. To the acceptor plate, Acceptor Sink Buffer (pION inc.) was added in an amount of 200 μL. Both plates were superposed and incubated at 37° C. for 4 hours, and then, UVs in the solutions on the side of acceptor and on the side of donor were measured with an UV plate reader (190 to 500 nm). Compounds with poor UV absorption were measured by LC-MS. The permeability coefficient Pe (10^−6 cm/sec) of the drug was calculated by the following formula.
[formula] • ra=(VD/VA)Pa^(A-D)/Pa^(D-A)=rVPe^(A-D)/Pa^(D-A) • rV=(VD/VA) • VD=volume of doner well • VA=volume of acceptor well • t=permeation time • τ^SS=steady state time • R=retention • CD=CA=concentration in donor and acceptor well

| Compound | IC50 [1] [nM] | Papp at 4 h [2] [×10⁻⁶ cm/s] |
| --- | --- | --- |
| C/C(=C\[C@H](C(C)C)N(C)C(=O)[C@@H](NC(=O)[C@@H](N(C)C)C(C)(C)c1ccccc1)C(C)(C)C)C(=O)N[C@H](CCC(=O)NCCN1C(=O)C=CC1=O)C(=O)O [Example M49, N^2—((S,E)-4-((S)-2-((S)-2-(Dimethylamino)-3-methyl-3-phenylbutanamido)-N,3,3-trimethylbutanamido)-2,5-dimethylhex-2-enoyl)-N^5-(2-(2,5-dioxo-2,5-dihydro-1H-pyrrolo-1-yl)ethyl)-D-glutamine] | > 1000 | – |
| CN[C@H](C(=O)N[C@H](C(=O)N(C)[C@H](/C=C(\C)C(=O)N[C@@H](CCC(=O)NCCN1C(=O)C=CC1=O)C(=O)O)C(C)C)C(C)(C)C)C(C)(C)c1cn(C)c2ccccc12 [Example M18] | 148 | < 0.1 |
| CN[C@H](C(=O)N[C@H](C(=O)N(C)[C@H](/C=C(\C)C(=O)N[C@H](CCC(=O)NCCN1C(=O)C=CC1=O)C(=O)O)C(C)C)C(C)(C)C)C(C)(C)c1cccc(OC)c1 [Example M37] | 403 | < 0.1 |
| CN[C@H](C(=O)N[C@H](C(=O)N(C)[C@H](/C=C(\C)C(=O)N[C@H](CC(=O)O)C(=O)NCCN1C(=O)C=CC1=O)C(C)C)C(C)(C)C)C(C)(C)c1cn(C)c2ccccc12 [Example M24] | 166 | < 0.1 |
| CNC(C(=O)N[C@H](C(=O)N(C)[C@H](/C=C(\C)C(=O)N[C@H](CCC(=O)O)C(=O)O)C(C)C)C(C)(C)C)C(C)(C)c1ccc(C(=O)NCCN2C(=O)C=CC2=O)cc1 (stereo partly drawn) [Example M47, ((4S,E)-4-((2 S)-2-(3-(4-((2-(2,5-Dioxo-2,5-dihydro-1H-pyrrol-1-yl)ethyl)carbamoyl)phenyl)-3-methyl-2-(methylamino)butanamido)-N,3,3-trimethylbutanamido)-2,5-dimethylhex-2-enoyl)-D-glutamic Acid] | > 1000 | 1.2 |
| CN[C@H](C(=O)N[C@H](C(=O)N(C)[C@H](/C=C(\C)C(=O)N[C@H](CCC(=O)NCCN1C(=O)C=CC1=O)C(=O)O)C(C)C)C(C)(C)C)C(C)(C)c1cccc(-c2ccccc2)c1 [Example M41] | 26.3 | 0.8 |
| CN[C@@H](C(=O)N[C@H](C(=O)N(C)[C@H](/C=C(\C)C(=O)N[C@H](CCC(=O)NCCN1C(=O)C=CC1=O)C(=O)O)C(C)C)C(C)(C)C)C(C)(C)c1cccc(Br)c1 [Example M45] | 189 | 4 |
| C/C(=C\[C@H](C(C)C)N(C)C(=O)[C@@H](NC(=O)[C@H]1CCCCN1C(=O)CCN1C(=O)C=CC1=O)C(C)(C)C)C(=O)N[C@H](CCC(=O)O)C(=O)O [Example M29] | > 1000 | < 0.1 |
| CN[C@H](C(=O)N[C@H](C(=O)N(C)[C@H](/C=C(\C)C(=O)N[C@H](CCC(=O)NCCN1C(=O)C=CC1=O)C(=O)O)C(C)C)C(C)(C)C)C(C)(C)C1CCCCC1 [Example M33] | 228 | < 0.1 |
| CN[C@H](C(=O)N[C@H](C(=O)N(C)[C@H](/C=C(\C)C(=O)N[C@H](CCC(=O)NCCCCN1C(=O)C=CC1=O)C(=O)O)C(C)C)C(C)(C)C)C(C)(C)c1ccccc1 [Example M17] | 35 | < 0.1 |
| CN[C@H](C(=O)N[C@H](C(=O)N(C)[C@H](/C=C(\C)C(=O)N[C@@H](CCCCNC(=O)CCCN1C(=O)C=CC1=O)C(=O)O)C(C)C)C(C)(C)C)C(C)(C)c1cn(C)c2ccccc12 [Example M27] | 192 | < 0.1 |
| CN[C@H](C(=O)N[C@H](C(=O)N(C)[C@H](/C=C(\C)C(=O)N[C@H](CCC(=O)NCCN1C(=O)C=CC1=O)C(=O)O)C(C)C)C(C)(C)C)C(C)(C)c1ccc(C(=O)O)cc1 [Example M36] | > 1000 | 0.6 |
| CN[C@H](C(=O)N[C@H](C(=O)N(C)[C@H](/C=C(\C)C(=O)N[C@H](CCC(=O)N[C@@H](CCCCNC(=O)CCN1C(=O)C=CC1=O)C(=O)O)C(=O)O)C(C)C)C(C)(C)C)C(C)(C)c1cn(C)c2ccc(F)cc12 [Example M26] | 80.1 | < 0.1 |
| CN[C@H](C(=O)N[C@H](C(=O)N(C)[C@H](/C=C(\C)C(=O)N[C@@H](CC(=O)O)C(=O)NCCN1C(=O)C=CC1=O)C(C)C)C(C)(C)C)C(C)(C)c1ccccc1 [Example M14] | > 1000 | – |
| CN[C@H](C(=O)N[C@H](C(=O)N(C)[C@H](/C=C(\C)C(=O)N[C@H](CCC(=O)NCCN1C(=O)C=CC1=O)C(=O)O)C(C)C)C(C)(C)C)C(C)(C)c1cccs1 [Example M39] | 379 | < 0.1 |
| CN[C@H](C(=O)N[C@H](C(=O)N(C)[C@H](/C=C(\C)C(=O)N[C@H](CCC(=O)NCCCN1C(=O)C=CC1=O)C(=O)O)C(C)C)C(C)(C)C)C(C)(C)c1ccccc1 [Example M16] | 573 | – |
| CN[C@H](C(=O)N[C@H](C(=O)N(C)[C@H](/C=C(\C)C(=O)N[C@H](CCC(=O)N[C@@H](CCCCNC(=O)CCCCCN1C(=O)C=CC1=O)C(=O)O)C(=O)O)C(C)C)C(C)(C)C)C(C)(C)c1cn(C)c2ccccc12 [Example M2, N-{(2E,4S)-2,5-Dimethyl-4-[methyl(N,β,β,1-tetramethyl-L-tryptophyl-3-methyl-L-valyl)amino]hex-2-enoyl}-D-γ-glutamyl-N^6-[6-(2,5-dioxo-2,5-dihydro-1H-pyrrol-1-yl)hexanoyl]-L-lysine] | 780 | < 0.1 |
| CN[C@H](C(=O)N[C@H](C(=O)N(C)[C@H](/C=C(\C)C(=O)N[C@@H](CC(=O)O)C(=O)NCCN1C(=O)C=CC1=O)C(C)C)C(C)(C)C)C(C)(C)c1cn(C)c2ccccc12 [Example M21] | 226 | < 0.1 |
| CNC(C(=O)N[C@H](C(=O)N(C)[C@H](/C=C(\C)C(=O)N[C@H](CCC(=O)NCCN1C(=O)C=CC1=O)C(=O)O)C(C)C)C(C)(C)C)C(C)(C)c1ccc(O)cc1 (stereo partly shown) [Example M34] | 8 | 2.7 |
| CN[C@H](C(=O)N[C@H](C(=O)N(C)[C@H](/C=C(\C)C(=O)N[C@H](CCC(=O)NCCN1C(=O)C=CC1=O)C(=O)O)C(C)C)C(C)(C)C)C(C)(C)c1cccc(C)c1 [Example M42] | 91.1 | 4.9 |
| CN[C@H](C(=O)N[C@H](C(=O)N(C)[C@H](/C=C(\C)C(=O)NCCCC[C@@H](NC(=O)CCCN1C(=O)C=CC1=O)C(=O)O)C(C)C)C(C)(C)C)C(C)(C)c1ccccc1 [Example M28] | 50.8 | < 0.1 |
| CN[C@H](C(=O)N[C@H](C(=O)N(C)[C@H](/C=C(\C)C(=O)N[C@H](CCC(=O)O)C(=O)NCCN1C(=O)C=CC1=O)C(C)C)C(C)(C)C)C(C)(C)c1ccccc1 [Example M15] | > 1000 | – |
| C/C(=C\[C@H](C(C)C)N(C)C(=O)[C@@H](NC(=O)[C@H]1CCCCN1C(C)C)C(C)(C)C)C(=O)N[C@H](CCC(=O)NCCN1C(=O)C=CC1=O)C(=O)O [Example M43] | 3.8 | 2 |
| CN[C@H](C(=O)N[C@H](C(=O)N(C)[C@H](/C=C(\C)C(=O)N[C@H](CCC(=O)NCCN1C(=O)C=CC1=O)C(=O)O)C(C)C)C(C)(C)C)C(C)(C)c1ccc2ccccc2c1 [Example M40] | 176 | < 0.1 |
| CN[C@H](C(=O)N[C@H](C(=O)N(C)[C@H](/C=C(\C)C(=O)N[C@H](CC(=O)O)C(=O)NCCN1C(=O)C=CC1=O)C(C)C)C(C)(C)C)C(C)(C)c1ccccc1 [Example M13] | 999 | – |
| CNC(C(=O)N[C@H](C(=O)N(C)[C@H](/C=C(\C)C(=O)N[C@H](CCC(=O)O)C(=O)O)C(C)C)C(C)(C)C)C(C)(C)c1ccc(OC(=O)CCN2C(=O)C=CC2=O)cc1 (stereo partly shown) [Example M30] | – | < 0.1 |
